Assay results from ChEMBL document CHEMBL5543174, “A Nonbactericidal Anionic Antimicrobial Peptide Provides Prophylactic and Therapeutic Efficacies against Bacterial Infections in Mice by Immunomodulatory-Antithrombotic Duality” (J Med Chem, 2024).
The source made the active and inactive calls. The calls are words filed in the database; no cut-off is given here.

Columns and labels:
Staphylococcus aureus [1] = assay: Antimicrobial activity against Staphylococcus aureus ATCC 25923 assessed as reduction in microbial colony forming unit at 2 times MIC incubated for 1 to 4 hrs by time-kill kinetics based analysis; format: functional, organism-based; settings: time 1-4 hrs
Escherichia coli [2] = assay: Antimicrobial activity against Escherichia coli ATCC 25922 assessed as reduction in microbial colony forming unit at 2 times MIC incubated for 1 to 4 hrs by time-kill kinetics based analysis; format: functional, organism-based; settings: time 1-4 hrs
Staphylococcus aureus [3] = assay: Antimicrobial activity against Methicillin-resistant Staphylococcus aureus assessed as reduction in microbial colony forming unit at 2 times MIC incubated for 1 to 4 hrs by time-kill kinetics based analysis; format: functional, organism-based; settings: time 1-4 hrs
Escherichia coli [4] = assay: Antimicrobial activity against Carbapenem-resistant Escherichia coli assessed as reduction in microbial colony forming unit at 2 times MIC incubated for 1 to 4 hrs by time-kill kinetics based analysis; format: functional, organism-based; settings: time 1-4 hrs
Candida albicans [5] = assay: Antimicrobial activity against Candida albicans ATCC 2002 assessed as reduction in microbial colony forming unit at 2 times MIC incubated for 1 to 4 hrs by time-kill kinetics based analysis; format: functional, organism-based; settings: time 1-4 hrs
Staphylococcus aureus [6] = assay: Antimicrobial activity against Staphylococcus aureus ATCC 25923 assessed as reduction in metabolic activity at 2 times MIC incubated for 1 to 4 hrs by CCK-8 assay; format: functional, organism-based; settings: time 1-4 hrs
Escherichia coli [7] = assay: Antimicrobial activity against Escherichia coli ATCC 25922 assessed as reduction in metabolic activity at 2 times MIC incubated for 1 to 4 hrs by CCK-8 assay; format: functional, organism-based; settings: time 1-4 hrs
Staphylococcus aureus [8] = assay: Antimicrobial activity against Methicillin-resistant Staphylococcus aureus assessed as reduction in metabolic activity at 2 times MIC incubated for 1 to 4 hrs by CCK-8 assay; format: functional, organism-based; settings: time 1-4 hrs
Escherichia coli [9] = assay: Antimicrobial activity against Carbapenem-resistant Escherichia coli assessed as reduction in metabolic activity at 2 times MIC incubated for 1 to 4 hrs by CCK-8 assay; format: functional, organism-based; settings: time 1-4 hrs
Candida albicans [10] = assay: Antimicrobial activity against Candida albicans ATCC 2002 assessed as reduction in metabolic activity at 2 times MIC incubated for 1 to 4 hrs by CCK-8 assay; format: functional, organism-based; settings: time 1-4 hrs
[11] = system: Peritoneal macrophage cell; assay: Induction of phagocytosis in mouse Peritoneal macrophage cultured with Methicillin-resistant Staphylococcus aureus assessed as number of surviving engulfed bacteria at 25 ug/ml incubated for 1.5 hrs followed by bacterial exposure for 1 hr by plate counting method; format: functional; settings: dose 25 µg/ml; time 2.5 hrs
[12] = system: Peritoneal macrophage cell; assay: Induction of phagocytosis in mouse Peritoneal macrophage cultured with Methicillin-resistant Staphylococcus aureus assessed as number of surviving engulfed bacteria at 50 ug/ml incubated for 1.5 hrs followed by bacterial exposure for 1 hr by plate counting method; format: functional; settings: dose 50 µg/ml; time 2.5 hrs
[13] = system: Peritoneal macrophage cell; assay: Induction of phagocytosis in mouse Peritoneal macrophage cultured with Methicillin-resistant Staphylococcus aureus assessed as number of surviving engulfed bacteria at 100 ug/ml incubated for 1.5 hrs followed by bacterial exposure for 1 hr by plate counting method; format: functional; settings: dose 100 µg/ml; time 2.5 hrs
Peritoneal macrophage [14] = assay: Induction of phagocytosis in mouse Peritoneal macrophage cultured with Carbapenem-resistant Escherichia coli assessed as number of surviving engulfed bacteria at 25 ug/ml incubated for 1.5 hrs followed by bacterial exposure for 1 hr by plate counting method; format: functional; settings: dose 25 µg/ml; time 2.5 hrs
[15] = system: Peritoneal macrophage cell; assay: Induction of phagocytosis in mouse Peritoneal macrophage cultured with Carbapenem-resistant Escherichia coli assessed as number of surviving engulfed bacteria at 50 ug/ml incubated for 1.5 hrs followed by bacterial exposure for 1 hr by plate counting method; format: functional; settings: dose 50 µg/ml; time 2.5 hrs
[16] = system: Peritoneal macrophage cell; assay: Induction of phagocytosis in mouse Peritoneal macrophage cultured with Carbapenem-resistant Escherichia coli assessed as number of surviving engulfed bacteria at 100 ug/ml incubated for 1.5 hrs followed by bacterial exposure for 1 hr by plate counting method; format: functional; settings: dose 100 µg/ml; time 2.5 hrs
[17] = system: Peritoneal macrophage cell; assay: Induction of chemotaxis in mouse Peritoneal macrophage assessed as upregulation of CXCL1 production at 100 ug/ml preincubated with PTX followed by compound addition by ELISA; format: functional; settings: dose 100 µg/ml
Peritoneal macrophage [18] = assay: Induction of chemotaxis in mouse Peritoneal macrophage assessed as upregulation of CXCL2 production at 100 ug/ml preincubated with PTX followed by compound addition by ELISA; format: functional; settings: dose 100 µg/ml
Peritoneal macrophage [19] = assay: Induction of chemotaxis in mouse Peritoneal macrophage assessed as upregulation of MCP-1 production at 100 ug/ml preincubated with PTX followed by compound addition by ELISA; format: functional; settings: dose 100 µg/ml
Mus musculus = assay: Antithrombotic activity in FeCl3-induced carotid arterial thrombosis C57BL/6 mouse model assessed as increase in blood flow by measuring time to occlusion at 10 mg/kg,SC administration observed for 30 mins by laser speckle perfusion imaging analysis; format: functional; settings: 0.5 h
Platelet [20] = assay: Anti-platelet aggregation activity in human Platelet rich plasma assessed as inhibition of ADP-induced aggregation at 100 ug/ml preincubated with compound for 5 mins followed by ADP addition by platelet aggregometry relative to control; format: functional; set-up: scale not given: the % may be the effect or the level left; settings: dose 100 µg/ml
Platelet [21] = assay: Anti-platelet aggregation activity in human Platelet rich plasma assessed as inhibition of collagen-induced aggregation at 100 ug/ml preincubated with compound for 5 mins followed by collagen addition by platelet aggregometry relative to control; format: functional; set-up: scale not given: the % may be the effect or the level left; settings: dose 100 µg/ml
Platelet [22] = assay: Anti-platelet aggregation activity in human Platelet rich plasma assessed as inhibition of PMA-induced aggregation at 100 ug/ml preincubated with compound for 5 mins followed by PMA addition by platelet aggregometry relative to control; format: functional; set-up: scale not given: the % may be the effect or the level left; settings: dose 100 µg/ml
Neutrophil = assay: Cytotoxicity against mouse bone marrow derived neutrophil at <= 200 ug/ml incubated for 24 hrs by CCK-8 assay; format: toxicity, cell-based; settings: dose < 200 µg/ml
Peritoneal macrophage [23] = assay: Cytotoxicity against mouse Peritoneal macrophage at <= 200 ug/ml incubated for 24 hrs by CCK-8 assay; format: toxicity, cell-based; settings: dose < 200 µg/ml
Erythrocyte [24] = assay: Hemolytic activity in rabbit erythrocytes at 25 to 200 ug/ml incubated for 30 mins by absorbance based analysis; format: toxicity, cell-based, Oryctolagus cuniculus; settings: 0.5 h, dose 25-200 µg/ml
Erythrocyte [25] = assay: Hemolytic activity in mouse erythrocytes at 25 to 200 ug/ml incubated for 30 mins by absorbance based analysis; format: toxicity, cell-based; settings: 0.5 h, dose 25-200 µg/ml
[26] = Acute toxicity in C57BL/6 mouse assessed as change in ALT level in serum at 10 mg/kg,ip administration measured after 24 hrs; format: organism-based; settings: in vivo
[27] = Acute toxicity in C57BL/6 mouse assessed as change in ALT level in serum at 30 mg/kg,ip administration measured after 24 hrs; format: organism-based; settings: in vivo
[28] = Acute toxicity in C57BL/6 mouse assessed as change in creatinine level in serum at 10 mg/kg,ip administration measured after 24 hrs; format: organism-based; settings: in vivo
[29] = Acute toxicity in C57BL/6 mouse assessed as change in creatinine level in serum at 30 mg/kg,ip administration measured after 24 hrs; format: organism-based; settings: in vivo

Q: Which results are given for `CC[C@H](C)[C@H](NC(=O)[C@H](CCCCN)NC(=O)[C@H](CCC(=O)O)NC(=O)[C@H](CCCCN)NC(=O)[C@H](CO)NC(=O)[C@H](CCCCN)NC(=O)[C@H](CCCNC(=N)N)NC(=O)[C@H](Cc1ccccc1)NC(=O)[C@H](Cc1ccccc1)NC(=O)[C@H](CC(=O)O)NC(=O)CNC(=O)[C@H](CC(C)C)NC(=O)[C@@H](N)CC(C)C)C(=O)NCC(=O)N[C@@H](CCCCN)C(=O)N[C@@H](CCC(=O)O)C(=O)N[C@@H](Cc1ccccc1)C(=O)N[C@@H](CCCCN)C(=O)N[C@@H](CCCNC(=N)N)C(=O)N[C@H](C(=O)N[C@H](C(=O)N[C@@H](CCC(N)=O)C(=O)N[C@@H](CCCNC(=N)N)C(=O)N[C@H](C(=O)N[C@@H](CCCCN)C(=O)N[C@@H](CC(=O)O)C(=O)N[C@@H](Cc1ccccc1)C(=O)N[C@@H](CC(C)C)C(=O)N[C@@H](CCCNC(=N)N)C(=O)N[C@@H](CC(N)=O)C(=O)N[C@@H](CC(C)C)C(=O)N[C@H](C(=O)N1CCC[C@H]1C(=O)N[C@@H](CCCNC(=N)N)C(=O)N[C@H](C(=O)N[C@@H](CCC(=O)O)C(=O)N[C@@H](CO)C(=O)O)[C@@H](C)O)C(C)C)[C@@H](C)CC)C(C)C)[C@@H](C)CC`?
A: Activity (Staphylococcus aureus [1]): Active; Activity (Escherichia coli [2]): Active; Activity (Staphylococcus aureus [3]): Active; Activity (Escherichia coli [4]): Active; Activity (Candida albicans [5]): Active; Activity (Staphylococcus aureus [6]): Active; Activity (Escherichia coli [7]): Active; Activity (Staphylococcus aureus [8]): Active; Activity (Escherichia coli [9]): Active; Activity (Candida albicans [10]): Active

Q: Which Activity [11] does the source give for `CC[C@H](C)[C@H](NC(=O)[C@@H]1CSSC[C@H](NC(=O)[C@H](CCC(=O)O)NC(=O)[C@@H](NC(=O)[C@H](CCCCN)NC(=O)[C@H](Cc2c[nH]cn2)NC(=O)[C@@H](NC(=O)[C@H](CCCCN)NC(=O)[C@H](CCC(=O)O)NC(=O)[C@H](C)NC(=O)[C@H](CCC(=O)O)NC(=O)[C@H](CCC(=O)O)NC(=O)[C@H](CCC(=O)O)NC(=O)[C@H](C)N)[C@@H](C)O)[C@@H](C)O)C(=O)N[C@@H](CC(C)C)C(=O)N[C@@H](CCC(=O)O)C(=O)N1)C(=O)N[C@@H](Cc1ccccc1)C(=O)N[C@H](C(=O)N[C@@H](CC(C)C)C(=O)N[C@@H](CC(C)C)C(=O)N1CCC[C@H]1C(=O)N1CCC[C@H]1C(=O)N[C@@H](C)C(=O)O)[C@@H](C)O` [listing 1 of 2 here] here?
A: 793

Q: What about the Activity [12] of the same compound?
A: 532

Q: What about the Activity [13] of the same compound?
A: 244

Q: And the Activity (Peritoneal macrophage [14])?
A: 279

Q: What about the Activity [15] of the same compound?
A: 245

Q: And the Activity [16]?
A: 234

Q: What about the Activity [17] of the same compound?
A: 56.8%

Q: And the Activity (Peritoneal macrophage [18])?
A: 63.2%

Q: What about the Activity (Peritoneal macrophage [19]) of the same compound?
A: 52.8%

Q: What about the Time (Mus musculus) of the same compound?
A: 28.5 min

Q: And the Activity (Platelet [20])?
A: 54.2%

Q: What about the Activity (Platelet [21]) of the same compound?
A: 57.72%

Q: And the Activity (Platelet [22])?
A: 78.01%

Q: Which Activity (Staphylococcus aureus [1]) does the source give for `C[C@@H](O)[C@H]1C(=O)N2C(C(=O)O)=C(S[C@@H]3CN[C@H](C(=O)N(C)C)C3)[C@H](C)[C@H]12` here?
A: Active

Q: What about the Activity (Escherichia coli [2]) of the same compound?
A: Active

Q: And the Activity (Staphylococcus aureus [3])?
A: Active

Q: And the Activity (Escherichia coli [4])?
A: Active

Q: And the Activity (Candida albicans [5])?
A: Active

Q: What about the Activity (Staphylococcus aureus [6]) of the same compound?
A: Active

Q: And the Activity (Escherichia coli [7])?
A: Active

Q: And the Activity (Staphylococcus aureus [8])?
A: Active

Q: What about the Activity (Escherichia coli [9]) of the same compound?
A: Active

Q: And the Activity (Candida albicans [10])?
A: Active

Q: Which results are given for `CC[C@H](C)[C@H](NC(=O)[C@@H]1CSSC[C@H](NC(=O)[C@H](CCC(=O)O)NC(=O)[C@@H](NC(=O)[C@H](CCCCN)NC(=O)[C@H](Cc2c[nH]cn2)NC(=O)[C@@H](NC(=O)[C@H](CCCCN)NC(=O)[C@H](CCC(=O)O)NC(=O)[C@H](C)NC(=O)[C@H](CCC(=O)O)NC(=O)[C@H](CCC(=O)O)NC(=O)[C@H](CCC(=O)O)NC(=O)[C@H](C)N)[C@@H](C)O)[C@@H](C)O)C(=O)N[C@@H](CC(C)C)C(=O)N[C@@H](CCC(=O)O)C(=O)N1)C(=O)N[C@@H](Cc1ccccc1)C(=O)N[C@H](C(=O)N[C@@H](CC(C)C)C(=O)N[C@@H](CC(C)C)C(=O)N1CCC[C@H]1C(=O)N1CCC[C@H]1C(=O)N[C@@H](C)C(=O)O)[C@@H](C)O` [listing 2 of 2 here]?
A: Activity (Neutrophil): Non-Toxic; Activity (Peritoneal macrophage [23]): Non-Toxic; Activity (Erythrocyte [24]): Non-Toxic; Activity (Erythrocyte [25]): Non-Toxic; Activity [26]: Non-Toxic; Activity [27]: Non-Toxic; Activity [28]: Non-Toxic; Activity [29]: Non-Toxic
